Experimental data taken from US8541617B2, “Cycloalkylphenyl substituted cyclic ketoenols” (Bayer Cropscience AG, priority 2006, dated 2013).

Key:
Assay type in all cases: in vivo
Lolium multiflorum = experiment: Example B: Herbicidal post-emergence action; settings: application rate 320 g/ha, rated after about 3 weeks
Experimental: (§1) Herbicidal Post-Emergence Action
(§2) Seeds of monocotylos and dicotylos weed and crop plants are placed in sandy lawn in wood fibre pots, covered with soil and cultivated in a greenhouse under good growth conditions. Two to three weeks after sowing, the test plants are treated at the one-leaf stage. The test compounds, formulated as wettable powders (WP) or as emulsion concentrates (EC), are then, as an aqueous suspension with a water application rate of 800 l/ha (converted), with 0.2% of wetting agent added, sprayed onto the green parts of the plants. After the test plants have been kept in the greenhouse under optimum growth conditions for about 3 weeks, the effect of the preparations is rated visually in comparison to untreated controls (herbicidal effect in percent (%): 100% effect=the plants have died, 0% effect=like control plants).

Setaria viridis = experiment: Example B: Herbicidal post-emergence action; settings: application rate 320 g/ha, rated after about 3 weeks
Experimental: as §1, §2

[1] = system: green peach aphid (Myzus persicae); experiment: Example G: Myzus persicae test, hydroponic treatment (MYZUPE sys.); settings: concentration 20 ppm, pea plant
Experimental: Myzus persicae Test, Hydroponic Treatment (MYZUPE sys.)
Solvent: 7 parts by weight of dimethylformamide
Emulsifier: 2 parts by weight of alkylaryl polyglycol ether
To produce a suitable preparation of active compound, 1 part by weight of active compound is mixed with the stated amounts of solvent and emulsifier, and the concentrate is diluted with water to the desired concentration.
The preparation of active compound is mixed with water. The stated concentration refers to the amount of active compound per volume unit of water (mg/l=ppm). The treated water is filled into vessels containing a pea plant (Pisum sativum) which is then infested with the green peach aphid (Myzus persicae).
After the desired period of time, the kill in percent is determined. 100% means that all aphids have been killed; 0% means that none of the aphids have been killed.

## CCOC(=O)OC1=C(c2c(C)cc(C3CC3)cc2CC)C(=O)NC12CCC(OC)CC2 (stereo not drawn) [Example I-1-c-1]
Lolium multiflorum
  herbicidal effect (efficacy), post-emergence: ≥ 90%
Setaria viridis
  herbicidal effect (efficacy), post-emergence: ≥ 90%

## COC1CCC2(CC1)NC(=O)C(c1c(C)cc(C3CC3)cc1C)=C2O (stereo not drawn) [Example I-1-a-4]
[1]
  efficacy (kill of aphids): ≥ 90%
